# Laboratory results published in patent publication US10342796B2, “Acrylanilide derivative, preparation method, and applications thereof in pharmacy” (Ancureall Pharmaceutical (Shanghai) Co., Ltd., priority 2015, dated 2019).
# What was measured:
# [1] = tested on: ZR-75-30 (Her2 amp); assay: Growth inhibition GI50 in vitro (CCK8/MTT, 72 h); assay type: cell-based; details: Homo sapiens, ZR-75-30, EGFR wt
# [2] = tested on: H2170 (Her2 amp); assay: Growth inhibition GI50 in vitro (CCK8/MTT, 72 h); assay type: cell-based; details: Homo sapiens, NCI-H2170, H2170, EGFR wt
# [3] = tested on: HCC1954 (Her2 amp); assay: Growth inhibition GI50 in vitro (CCK8/MTT, 72 h); assay type: cell-based; details: Homo sapiens, HCC1954, EGFR wt
# [4] = tested on: H1975 tumor cells; assay: In vivo tumor growth inhibition, xenograft; parameters: species or system Bab/c nude mice; details: Mus musculus, NCI-H1975, po, 456 h; 25 mg/kg intragastric once daily, day 19; read-out: TGI (%) H1975
# Excerpt: (§1) Tumor xenograft models of immunodeficient mice are an effective tool to test the antitumor activity of the compound in vivo. Generally, the effectiveness of human tumor cell xenograft is positively correlated with the clinical treatment of human tumor. Bab/c immunodeficient mouse is one of the most commonly used xenograft animals with human tumor cells. In order to test whether the present compounds can inhibit the in vivo growth of the tumor cells expressing EGFR mutantion or HER2/ErbB2 overexpression, H1975, PC-9 and NCI-N87 cell lines were used in the experiments. When H1975, PC-9 and NCI-N87 cells were in growth logarithmic phase, they were digested with pancreatin. An appropriate amount of 1×RPMI1640 culture medium (serum-free) was added to stop digestion. The cells were collected to a 50 ml centrifuge tube (Corning), and centrifuged at 1700 rm for 3 min. The supernatant was discard, then the cells were suspended with 1×RPMI1640 culture medium and count the number. […] cells/mL was prepared and then placed on ice. 5˜10×10^6 (0.2 ml) cells were inoculated subcutaneously on the right side of the back of 6˜8 week old female Bab/c nude mice (about 20 g in weight). When the tumor average volume growed to 100˜200 mm^3, the mice were randomly divide into groups (3-6 mice per group), and marked by ear pierced tags and weighted. The test compounds and the reference compound (with a purity over 99% and individual impurity not higher than 0.2%) were formulated to emulsion suspension with CM (30% polyethylene glycol 400, 0.5% Tween-80 and 2.5% propylene glycol) respectively. Intragastric administration was continued once daily at a dosage of 25 mg/kg (0.1 ml/10 g mouse). The tumor was measured 3 times per week. When the average volume of the tumor in CM control group was up to 1500 mm^3 or after administration for 30 days, the experiment was ended.
# (§2) The volume of tumor (V) was calculated as V=½*a*b^2 (a represents length of tumors, b represents width of tumors). Tumor growth inhibition (TGI) was calculated as: TGI (%)=100−(VT−VT0)/(VC−VC0)*100%; where VT0 and VT are the tumor volumes of the beginning and finish days of dosed groups; and VC0 and VC are the tumor volumes of the beginning and finish days for the control group, respectively.
# [5] = tested on: PC-9 tumor cells; assay: In vivo tumor growth inhibition, xenograft; parameters: species or system Bab/c nude mice; details: Mus musculus, po, 456 h; 25 mg/kg intragastric once daily, day 19; read-out: TGI (%) PC-9
# Excerpt: as §1, §2
# [6] = tested on: Karpas-299 (NPM-ALK); assay: Growth inhibition GI50 in vitro (CCK8/MTT, 72 h); assay type: cell-based; details: Homo sapiens, Karpas-299, EGFR wt
# [7] = tested on: K562 (BCR-ABL); assay: Growth inhibition GI50 in vitro (CCK8/MTT, 72 h); assay type: cell-based; details: Homo sapiens
# Description: Human leukemia cell line K562 (expressing BCR-ABL fusion protein) (ATCC) was cultured with 1×RPMI1640 complete medium (supplement with 10% FBS).
# (§3) The suspension cells were collected by centrifugation. The supernatant was discard and the cell pellet was resuspended and counted. Different cell concentrations (5˜10×10^4 cells/mL) were prepared according to the growth cycle of each cell line and then seeded on a 96-well plate (Corning), 100 μL/well. The cells were incubated over night at 37° C., 5% CO2. The compounds were added to the cells on the second day with 2 wells in parallel. The final concentration of organic solvent shall not exceed 1%. The cells were continually incubated for 72 h, and then subjected to MTT assay.
# (§4) The present compounds and the reference compounds were dissolved with DMSO (Sigma), respectively. […] The storage concentration of compounds was 10 mM and kept at −20° C. They were diluted by 2 times or 10 times with serial dilution before using.
# (§5) Dojindo CCK8 reagent kit was used as MTT assay. […] FC meter was used as microplate reader.
# (§6) Adherent cell culture medium was discard and immediately replaced with fresh prepared medium which contains 10% CCK8 reagent (100 μL/well). For the suspension cells, CCK8 was directly added to 10% of the final concentration. The cells were continually incubated for 1˜4 h. When the color of control wells turned to dark yellow, the absorption value was measured at OD450 nm. The cell growth rate was calculated according to the following formula: cell growth rate (%)=100*(T−T0)/(C−T0), T=optical density of drug treatment cell well—optical density of blank control well; T0=optical density of cell well before drug treatment—optical density of blank control well; C=optical density of cell well of solvent control group—optical density of blank control well. […] The experiment was independently repeated 1˜3 times, and subject to biological statistical analysis.
# (§7) Growth inhibition assay was conducted in the cell lines shown Table 14 with the different oncogene mutations. Each compound started at 1000 nM as an initial concentration and was diluted by 2 times with serial dilution to 0.03 nM.
# [8] = tested on: MV4-11 (FLT3-ITD); assay: Growth inhibition GI50 in vitro (CCK8/MTT, 72 h); assay type: cell-based, human; details: for GI50: Homo sapiens, MV4-11, FLT3-ITD; for inhibition effects: FLT3-ITD+ MV4-11 cells
# Description: FLT3 is a kind of PTK and about 20-30% of patients with acute myelocytic leukemia (AML) in clinic express FLT3-ITD mutation protein. FLT3-ITD positive cell line MV4-11 was cultured with 1×RPMI1640 complete medium (supplement with 10% FBS).
# as §3, §4, §5, §6, §7
# [9] = tested on: HER2/ErbB2 amplified cell line N87; assay: In vivo tumor growth inhibition, xenograft; parameters: species or system Bab/c nude mice; details: Mus musculus, po, 456 h, 25 mg/kg intragastric once daily, day 19, read-out: TGI (%)
# Excerpt: as §1, §2
GI50 [2],GI50 [3],GI50 [6],GI50 [7],GI50 [8],SMILES,GI50 [1],inhibition in vivo at 25 mg/kg [4],inhibition in vivo at 25 mg/kg [5],inhibition in vivo at 25 mg/kg [9],inhibition effects [8]
12.6 nM,375 nM,500 nM,> 1000 nM,> 1000 nM,"C=CC(=O)Nc1cc(Nc2nccc(Nc3cccc(Cl)c3)n2)c(OC)cc1N(C)CCN(C)C [Compound 2, N-(5-(4-(3-chloro-phenylamino)-pyrimidin-2-ylamino)-2-(2-(dimethylamino-ethyl)-methyl-amino)-4-methoxyl-phenyl)-acrylamide]",6 nM,–,–,–,–
19.5 nM,312 nM,> 1000 nM,> 1000 nM,> 1000 nM,"C=CC(=O)Nc1cc(Nc2nccc(Nc3ccc(OCc4ccccn4)c(Cl)c3)n2)c(OC)cc1N(C)CCN(C)C [Compound 18, N-(5-(4-(3-chloro-4-(pyridin-2-methoxyl)phenylamino)pyrimidin-2-ylamino)-2-((2-(dimethylamino)ethyl)(methyl)amino)-4-methoxyl-phenyl)-acrylamide]",2.1 nM,96.7%,98.3%,–,–
14.6 nM,312 nM,500 nM,> 1000 nM,> 1000 nM,"C=CC(=O)Nc1cc(Nc2ncc(Cl)c(Nc3ccc(OCc4ccccn4)c(Cl)c3)n2)c(OC)cc1N(C)CCN(C)C [Compound 19, N-(5-(5-chloro-4-(3-chloro-4-(pyridin-2-methoxyl)phenylamino)-pyrimidin-2-ylamino)-2-((2-(dimethylamino)ethyl)(methyl)amino)-4-methoxyl-phenyl)-acrylamide]",2.1 nM,–,–,–,–
–,–,–,–,–,"C=CC(=O)Nc1cc(Nc2nccc(-n3ccc4ccc(F)cc43)n2)c(OC)cc1N(C)CCN(C)C [Compound 63, N-(5-(4-(6-fluoro-1H-indol-1-yl)-pyrimidin-2-ylamino)-2-((2-(dimethylamino)ethyl)-methyl-amino)-4-methoxyl-phenyl)-acrylamide]",–,98.3%,98.3%,94.7%,–
9.4 nM,375 nM,> 1000 nM,> 1000 nM,> 1000 nM,C=CC(=O)Nc1cc(Nc2nccc(-n3cnc4ccccc43)n2)c(OC)cc1N(C)CCN(C)C [Compound 106],12 nM,–,–,–,–
4.8 nM,37.5 nM,> 1000 nM,> 1000 nM,124 nM,"C=CC(=O)Nc1cc(Nc2ncnc(Nc3cccc(F)c3)n2)c(OC)cc1N(C)CCN(C)C [Compound 114, N-(5-(4-(3-fluoro-phenylamino)-[1,3,5]triazin-2-ylamino)-2-((2-dimethylamino-ethyl)-methyl-amino)-4-methoxyl-phenyl)-acrylamide]",1.1 nM,–,–,–,moderate inhibition effects
6.8 nM,37.5 nM,500 nM,> 1000 nM,156 nM,C=CC(=O)Nc1cc(Nc2ncnc(Nc3cccc(Br)c3)n2)c(OC)cc1N1CCC(N2CCCC2)CC1 [Compound 118],2.6 nM,–,–,–,moderate inhibition effects
–,–,–,–,–,"C=CC(=O)Nc1cc(Nc2cc(Nc3cc(OC)c(Cl)cc3Cl)ncn2)c(OC)cc1N(C)CCN(C)C [Compound 136, N-(5-(6-(2,4-dichloro-5-methoxyl-phenylamino)-pyrimidin-4-ylamino)-2-((2-dimethylamino-ethyl)-methyl-amino)-4-methoxyl-phenyl)-acrylamide]",–,–,–,96.7%,–
4.8 nM,26.5 nM,> 1000 nM,> 1000 nM,> 1000 nM,"C=CC(=O)Nc1cc(Nc2cc(Nc3ccc(F)c(Cl)c3)ncn2)c(OC)cc1N(C)CCN(C)C [Compound 140, N-(5-(6-(3-chloro-4-fluoro-phenylamino)-pyrimidin-4-ylamino)-2-((2-dimethylamino-ethyl)-methyl-amino)-4-methoxyl-phenyl)-acrylamide]",1.5 nM,98.4%,97.9%,–,moderate inhibition effects
4.8 nM,26.5 nM,> 1000 nM,> 1000 nM,> 1000 nM,"C=CC(=O)Nc1cc(Nc2cc(Nc3ccc(F)c(Cl)c3)ncn2)c(OC)cc1N1CCN(C2CCN(C)CC2)CC1 [Compound 147, N-(5-(6-(3-chloro-4-fluoro-phenylamino)-pyrimidin-4-ylamino)-4-methoxyl-2-(4-(1-methylpiperidin-4-yl)-piperazin-1-yl)-phenyl)-acrylamide]",1.5 nM,–,–,–,–
–,–,–,–,–,"C=CC(=O)Nc1cc(Nc2nccc(-n3ccc4c(OCCOC)cccc43)n2)c(OC)cc1N(C)CCN(C)C [Compound 205, N-(5-(4-(4-(2-methoxyl-ethoxyl)-1H-indol-1-yl)-pyrimidin-2-ylamino)-2-(2-(dimethylamino-ethyl)-methyl-amino)-4-methoxyl-phenyl)-acrylamide]",–,99.5%,96.5%,–,–
–,–,–,–,–,"C=CC(=O)Nc1cc(Nc2cc(Nc3ccc(OCC4CCOCC4)c(Cl)c3)ncn2)c(OC)cc1N(C)CCN(C)C [Compound 216, N-(5-(6-(3-chloro-4-(tetrahydropyran-4-yl-methoxyl)-phenylamino)-pyrimidin-4-ylamino)-2-((2-dimethylaminoethyl)-methyl-amino)-4-methoxyphenyl)-acrylamide]",–,–,–,97.6%,–
–,–,–,–,–,"C=CC(=O)Nc1cc(Nc2cc(Nc3cc(F)c(OC)c(Cl)c3)ncn2)c(OC)cc1N(C)CCN(C)C [Compound 236, N-(5-(6-(3-chloro-5-fluoro-4-methoxyphenylamino)-pyrimidin-4-yl-amino)-2-((2-dimethylamino-ethyl)-methyl-amino)-4-methoxyl-phenyl)-acrylamide]",–,–,–,97.5%,–

SMILES,GI50 [2],GI50 [3],GI50 [6],GI50 [7],GI50 [8],GI50 [1],inhibition in vivo at 25 mg/kg [4],inhibition in vivo at 25 mg/kg [5],inhibition in vivo at 25 mg/kg [9],inhibition effects [8]
"C=CC(=O)Nc1cc(Nc2nccc(-c3cn(C)c4ccccc34)n2)c(OC)cc1N(C)CCN(C)C [AZD9291, reference compound]",117 nM,> 1000 nM,> 1000 nM,> 1000 nM,> 1000 nM,31 nM,98.4%,97.2%,–,–
